Reference: PubChem BioAssay (NCI)
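Protocol summary: plate cells (96-well), add compound at 5 concentrations, incubate 48 h, interpolate endpoints linearly. At the GI50, growth is halved. TGI marks complete inhibition of growth.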

Experiments:
Assay in all cases: NCI tumour cell line growth inhibition, 48 h; in the data active = GI50 below about 0.43 µM; inactive = the rest
[1] = tested on: ACHN renal
[2] = tested on: COLO 205 colon
[3] = tested on: SF-268 CNS
[4] = tested on: UACC-257 melanoma
[5] = tested on: OVCAR-3 ovarian
[6] = tested on: HL-60(TB) leukemia
[7] = tested on: CCRF-CEM leukemia
[8] = tested on: NCI-H23 lung
[9] = tested on: M14 melanoma
[10] = tested on: HT29 colon
[11] = tested on: OVCAR-8 ovarian
[12] = tested on: SK-MEL-5 melanoma
[13] = tested on: IGROV1 ovarian
[14] = tested on: 786-0 renal
[15] = tested on: SN12C renal
[16] = tested on: DU-145 prostate
[17] = tested on: MDA-MB-231 breast
[18] = tested on: HCC-2998 colon
[19] = tested on: HS 578T breast
[20] = tested on: MCF7 breast
[21] = tested on: HOP-92 NSCLC
[22] = tested on: LOX IMVI melanoma
[23] = tested on: MALME-3M melanoma
[24] = tested on: PC-3 prostate
[25] = tested on: HCT-116 colon
[26] = tested on: SW-620 colon
[27] = tested on: U251 CNS
[28] = tested on: SNB-19 CNS
[29] = tested on: HCT-15 colon
[30] = tested on: SK-MEL-2 melanoma
[31] = tested on: RPMI-8226 leukemia
[32] = tested on: NCI/ADR-RES ovarian
[33] = tested on: NCI-H226 lung
[34] = tested on: MOLT-4 leukemia
[35] = tested on: T-47D breast
[36] = tested on: UACC-62 melanoma
[37] = tested on: SR leukemia
[38] = tested on: SF-295 CNS
[39] = tested on: OVCAR-4 ovarian
[40] = tested on: HOP-62 NSCLC
[41] = tested on: SNB-75 CNS
[42] = tested on: SK-OV-3 ovarian
[43] = tested on: A498 renal
[44] = tested on: NCI-H460 lung
[45] = tested on: BT-549 breast
[46] = tested on: K-562 leukemia
[47] = tested on: RXF 393 renal
[48] = tested on: SK-MEL-28 melanoma
[49] = tested on: SF-539 CNS
[50] = tested on: KM12 colon
[51] = tested on: A549 NSCLC
[52] = tested on: CAKI-1 renal
[53] = tested on: MDA-MB-435
[54] = tested on: UO-31 renal
[55] = tested on: OVCAR-5 ovarian
[56] = tested on: NCI-H522 lung
[57] = tested on: EKVX NSCLC
[58] = tested on: TK-10 renal

CCOc1ccc(N(C)c2ccc(/C=C/C3=[N+](C)c4ccccc4C3(C)C)cc2)cc1
257 nM: TGI [6]
709 nM: TGI [34]
1100 nM: TGI [25]
1170 nM: TGI [11] | TGI [27]
1350 nM: TGI [51]
784 nM: TGI [12]
1060 nM: TGI [10]
2180 nM: TGI [33] | TGI [39]
602 nM: TGI [31]
1730 nM: TGI [9]
10300 nM: TGI [46]
1440 nM: TGI [42]
1920 nM: TGI [14]
10200 nM: TGI [43]
1160 nM: TGI [45]
1910 nM: TGI [40]
2760 nM: TGI [41]
3890 nM: TGI [38]
793 nM: TGI [24]
2650 nM: TGI [3]
2110 nM: TGI [29] | TGI [48]
1520 nM: TGI [15]
1550 nM: TGI [18]
1340 nM: TGI [8]
2200 nM: TGI [49]
16600 nM: TGI [32]
inactive: GI50 [3] 933 nM | GI50 [14] 562 nM | GI50 [17] 485 nM | GI50 [20] 498 nM | GI50 [29] 596 nM | GI50 [32] 2430 nM | GI50 [36] 444 nM | GI50 [38] 470 nM | GI50 [40] 482 nM | GI50 [41] 1130 nM | GI50 [47] 471 nM | GI50 [48] 680 nM | GI50 [49] 771 nM | GI50 [52] 784 nM | GI50 [54] 449 nM | GI50 [55] 1280 nM
1800 nM: TGI [28]
2480 nM: TGI [52]
1320 nM: TGI [53]
1380 nM: TGI [44]
1950 nM: TGI [47]
1110 nM: TGI [1]
1190 nM: TGI [26]
633 nM: TGI [37]
1050 nM: TGI [50]
1790 nM: TGI [54]
810 nM: TGI [2]
2670 nM: TGI [35]
861 nM: TGI [4]
active: GI50 [1] 306 nM | GI50 [2] 211 nM | GI50 [4] 188 nM | GI50 [5] 151 nM | GI50 [6] 59 nM | GI50 [7] 84.1 nM | GI50 [8] 125 nM | GI50 [9] 366 nM | GI50 [10] 137 nM | GI50 [11] 117 nM | GI50 [12] 192 nM | GI50 [13] 257 nM | GI50 [15] 309 nM | GI50 [16] 421 nM | GI50 [18] 391 nM | GI50 [19] 314 nM | GI50 [21] 197 nM | GI50 [22] 133 nM | GI50 [23] 184 nM | GI50 [24] 75.9 nM | GI50 [25] 72.5 nM | GI50 [26] 175 nM | GI50 [27] 122 nM | GI50 [28] 367 nM | GI50 [30] 361 nM | GI50 [31] 139 nM | GI50 [33] 369 nM | GI50 [34] 193 nM | GI50 [35] 392 nM | GI50 [37] 49.9 nM | GI50 [39] 399 nM | GI50 [42] 354 nM | GI50 [43] 189 nM | GI50 [44] 306 nM | GI50 [45] 216 nM | GI50 [46] 359 nM | GI50 [50] 219 nM | GI50 [51] 201 nM | GI50 [53] 231 nM | GI50 [56] 167 nM
647 nM: TGI [7]
364 nM: TGI [22]
780 nM: TGI [56]
2160 nM: TGI [36]
1860 nM: TGI [16]
848 nM: TGI [23]
1250 nM: TGI [30]
982 nM: TGI [13]
2000 nM: TGI [19]
1090 nM: TGI [5]
860 nM: TGI [21]
2790 nM: TGI [20]
2220 nM: TGI [17]
2920 nM: TGI [55]

Cc1cccc2cc(/C=C/C(=O)/C=C/c3ccc(Cl)cc3)c(=O)[nH]c12
> 100000 nM: TGI [4] | TGI [12] | TGI [17] | TGI [19] | TGI [21] | TGI [23] | TGI [57] | TGI [26] | TGI [30] | TGI [58] | TGI [32] | TGI [34] | TGI [39] | TGI [40] | TGI [41] | TGI [42] | TGI [43] | TGI [44] | TGI [46] | TGI [49] | TGI [52] | TGI [55]
11600 nM: TGI [37]
inactive: GI50 [4] > 100000 nM | GI50 [7] 3980 nM | GI50 [12] > 100000 nM | GI50 [17] 3710 nM | GI50 [19] > 100000 nM | GI50 [21] > 100000 nM | GI50 [23] > 100000 nM | GI50 [57] > 100000 nM | GI50 [26] 2980 nM | GI50 [30] > 100000 nM | GI50 [58] > 100000 nM | GI50 [32] > 100000 nM | GI50 [34] 5690 nM | GI50 [37] 2720 nM | GI50 [39] > 100000 nM | GI50 [40] > 100000 nM | GI50 [41] 16800 nM | GI50 [42] > 100000 nM | GI50 [43] > 100000 nM | GI50 [44] > 100000 nM | GI50 [46] 3800 nM | GI50 [49] > 100000 nM | GI50 [52] > 100000 nM | GI50 [55] > 100000 nM
88800 nM: TGI [7]
635 nM: TGI [25]
1260 nM: TGI [31]
active: GI50 [25] 259 nM | GI50 [31] 331 nM

c1ccc(-c2c(-c3ccccc3)[n+](Cc3ccc4ccccc4c3)cn2Cc2ccc3ccccc3c2)cc1
active: GI50 [21] 122 nM
1260 nM: TGI [21]
inactive: GI50 [1] 1470 nM | GI50 [19] 1740 nM | GI50 [32] 2130 nM
4910 nM: TGI [19]
5120 nM: TGI [32]
2900 nM: TGI [1]

CCCCCCCCCCCCCCCCOCC(COP(=O)(O)OCC1OC(n2cc(CC)c(=O)[nH]c2=O)CC1O)OC(=O)CCCCCCCCCCCCCCC (stereo unspecified)
> 100000 nM: TGI [1] | TGI [2] | TGI [3] | TGI [4] | TGI [5] | TGI [6] | TGI [7] | TGI [8] | TGI [9] | TGI [10] | TGI [11] | TGI [13] | TGI [14] | TGI [15] | TGI [16] | TGI [17] | TGI [18] | TGI [19] | TGI [20] | TGI [21] | TGI [22] | TGI [24] | TGI [57] | TGI [25] | TGI [26] | TGI [27] | TGI [28] | TGI [29] | TGI [30] | TGI [58] | TGI [31] | TGI [32] | TGI [33] | TGI [34] | TGI [35] | TGI [36] | TGI [37] | TGI [38] | TGI [39] | TGI [40] | TGI [41] | TGI [42] | TGI [43] | TGI [46] | TGI [47] | TGI [48] | TGI [49] | TGI [50] | TGI [51] | TGI [52] | TGI [53] | TGI [54] | TGI [55] | TGI [56]

Cc1nnc2n1N=C(c1cc(F)c(Cl)cc1Cl)/C(=C/c1ccc(-c3ccc([N+](=O)[O-])cc3)o1)S2
> 100000 nM: TGI [1] | TGI [2] | TGI [3] | TGI [4] | TGI [5] | TGI [6] | TGI [7] | TGI [8] | TGI [9] | TGI [10] | TGI [11] | TGI [12] | TGI [13] | TGI [14] | TGI [15] | TGI [18] | TGI [19] | TGI [20] | TGI [21] | TGI [22] | TGI [23] | TGI [24] | TGI [57] | TGI [25] | TGI [26] | TGI [27] | TGI [28] | TGI [29] | TGI [30] | TGI [31] | TGI [32] | TGI [34] | TGI [35] | TGI [36] | TGI [37] | TGI [38] | TGI [39] | TGI [40] | TGI [42] | TGI [43] | TGI [44] | TGI [45] | TGI [46] | TGI [48] | TGI [50] | TGI [51] | TGI [52] | TGI [53] | TGI [54] | TGI [55] | TGI [56]

COc1cc([C@@H]2c3cc4c(cc3[C@H](OC3OC5COC(c6ccco6)OC5C(O)C3O)C3COC(=O)[C@@H]32)OCO4)cc(OC)c1OC (stereo partly specified)
> 31300 nM: TGI [2]
> 57300 nM: TGI [56]
> 52700 nM: TGI [13]
> 35900 nM: TGI [24]
> 24600 nM: TGI [5]
> 69800 nM: TGI [30]
> 100000 nM: TGI [3] | TGI [4] | TGI [6] | TGI [9] | TGI [10] | TGI [11] | TGI [16] | TGI [17] | TGI [18] | TGI [19] | TGI [21] | TGI [22] | TGI [23] | TGI [25] | TGI [26] | TGI [27] | TGI [28] | TGI [29] | TGI [58] | TGI [31] | TGI [33] | TGI [35] | TGI [36] | TGI [38] | TGI [39] | TGI [40] | TGI [41] | TGI [42] | TGI [47] | TGI [49] | TGI [50] | TGI [51] | TGI [53] | TGI [54] | TGI [55]
> 34500 nM: TGI [14]
> 53600 nM: TGI [20]
> 69900 nM: TGI [52]
> 72400 nM: TGI [12]
> 79400 nM: TGI [8]
> 80100 nM: TGI [32]
85700 nM: TGI [45]
> 59300 nM: TGI [1]
